Test results from ChEMBL document CHEMBL1201862, “PubChem BioAssay data set” (2004).
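All cell lines were grown in 96-well plates and treated with compound for 48 hours. The concentration for 50% growth inhibition is given as GI50.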 Activity calls are given as the source filed them. No stated cut-off is given here; in the data, active = GI50 up to about 1.1 µM and inactive = higher.

Experiments:
Assay in all cases: NCI-60 cell line screen, 48 h
Malme-3M = test system: Malme-3M
U-251 = test system: U-251
CAKI-1 = test system: CAKI-1
OVCAR-8 = test system: OVCAR-8
COLO 205 = test system: COLO 205
NCI-H226 = test system: NCI-H226
Hs-578T = test system: Hs-578T
BT-549 = test system: BT-549
HT-29 = test system: HT-29
786-0 = test system: 786-0
A498 = test system: A498
KM12 = test system: KM12
M14 = test system: M14
SF-539 = test system: SF-539
MDA-MB-435 = test system: MDA-MB-435
LOX IMVI = test system: LOX IMVI
DU-145 = test system: DU-145
SW-620 = test system: SW-620
IGROV-1 = test system: IGROV-1
SK-MEL-28 = test system: SK-MEL-28
SF-268 = test system: SF-268
RPMI-8226 = test system: RPMI-8226
EKVX = test system: EKVX
OVCAR-3 = test system: OVCAR-3
UO-31 = test system: UO-31
MCF7 = test system: MCF7
HCC 2998 = test system: HCC 2998
SF-295 = test system: SF-295
HCT-15 = test system: HCT-15
T47D = test system: T47D
SNB-19 = test system: SNB-19
SK-MEL-2 = test system: SK-MEL-2
SR = test system: SR
HOP-62 = test system: HOP-62
HOP-92 = test system: HOP-92
OVCAR-4 = test system: OVCAR-4
HCT-116 = test system: HCT-116
RXF 393 = test system: RXF 393
A549 = test system: A549
SK-MEL-5 = test system: SK-MEL-5
MDA-MB-231 = test system: MDA-MB-231
K562 = test system: K562
MDA-N = test system: MDA-N
ACHN = test system: ACHN
UACC-62 = test system: UACC-62
NCI/ADR-RES = test system: NCI/ADR-RES
CCRF-CEM = test system: CCRF-CEM
SK-OV-3 = test system: SK-OV-3
UACC-257 = test system: UACC-257
NCI-H460 = test system: NCI-H460
OVCAR-5 = test system: OVCAR-5
NCI-H23 = test system: NCI-H23
PC-3 = test system: PC-3
NCI-H522 = test system: NCI-H522
MOLT-4 = test system: MOLT-4
SNB-75 = test system: SNB-75
TK-10 = test system: TK-10
HL-60 = test system: HL-60
SN12C = test system: SN12C

## CC(C)=CCC[C@@H](C)C1=C(O)C(=O)C(C)=C(Nc2ccccc2Cl)C1=O
Malme-3M
  GI50: 11.3 µM (inactive)
U-251
  GI50: 16.3 µM (inactive)
CAKI-1
  GI50: 16 µM (inactive)
OVCAR-8
  GI50: 4.71 µM (inactive)
COLO 205
  GI50: 14.2 µM (inactive)
NCI-H226
  GI50: 13.1 µM (inactive)
Hs-578T
  GI50: 21.7 µM (inactive)
BT-549
  GI50: 32.4 µM (inactive)
HT-29
  GI50: 13 µM (inactive)
786-0
  GI50: 12.9 µM (inactive)
A498
  GI50: 17.5 µM (inactive)
KM12
  GI50: 10.8 µM (inactive)
M14
  GI50: 21.4 µM (inactive)
SF-539
  GI50: 9.31 µM (inactive)
MDA-MB-435
  GI50: 23.9 µM (inactive)
LOX IMVI
  GI50: 8.57 µM (inactive)
DU-145
  GI50: 36.2 µM (inactive)
SW-620
  GI50: 27 µM (inactive)
IGROV-1
  GI50: 5.81 µM (inactive)
SK-MEL-28
  GI50: 26.5 µM (inactive)
SF-268
  GI50: 16 µM (inactive)
RPMI-8226
  GI50: 25.9 µM (inactive)
EKVX
  GI50: 19 µM (inactive)
OVCAR-3
  GI50: 10.8 µM (inactive)
UO-31
  GI50: 12.4 µM (inactive)
MCF7
  GI50: 24.4 µM (inactive)
HCC 2998
  GI50: 20.6 µM (inactive)
SF-295
  GI50: 6.71 µM (inactive)
HCT-15
  GI50: 7.26 µM
T47D
  GI50: 12.6 µM (inactive)
SNB-19
  GI50: 30.7 µM (inactive)
SK-MEL-2
  GI50: 15.5 µM (inactive)
SR
  GI50: 11.5 µM (inactive)
HOP-62
  GI50: 11.6 µM (inactive)
HOP-92
  GI50: 27.8 µM (inactive)
OVCAR-4
  GI50: 11.2 µM (inactive)
HCT-116
  GI50: 15 µM (inactive)
RXF 393
  GI50: 22.3 µM (inactive)
A549
  GI50: 19 µM (inactive)
SK-MEL-5
  GI50: 16.8 µM (inactive)
MDA-MB-231
  GI50: 40.4 µM (inactive)
K562
  GI50: 36 µM (inactive)
MDA-N
  GI50: 21.5 µM (inactive)
ACHN
  GI50: 19.1 µM (inactive)
UACC-62
  GI50: 12.2 µM (inactive)
NCI/ADR-RES
  GI50: 1.82 µM (inactive)
CCRF-CEM
  GI50: 4.41 µM (inactive)
SK-OV-3
  GI50: 27.1 µM (inactive)
UACC-257
  GI50: 25.9 µM (inactive)
NCI-H460
  GI50: 14.1 µM (inactive)
OVCAR-5
  GI50: 45.7 µM (inactive)
NCI-H23
  GI50: 12.5 µM (inactive)
PC-3
  GI50: 18.5 µM (inactive)
NCI-H522
  GI50: 6.25 µM (inactive)
MOLT-4
  GI50: 5 µM (inactive)
SNB-75
  GI50: 8.75 µM (inactive)
TK-10
  GI50: 33.7 µM (inactive)
HL-60
  GI50: 1.22 µM (inactive)
SN12C
  GI50: 25.1 µM (inactive)

## CCN(CC)C1Oc2cc3c(cc2C(c2cc(OC)c(O)c(OC)c2)C1C)OCO3 (stereo not drawn)
Malme-3M
  GI50: 3.55 µM (inactive)
U-251
  GI50: 10.5 µM (inactive)
CAKI-1
  GI50: 12.5 µM (inactive)
OVCAR-8
  GI50: 14.8 µM (inactive)
COLO 205
  GI50: 15.5 µM (inactive)
NCI-H226
  GI50: 10.8 µM (inactive)
Hs-578T
  GI50: 6.84 µM (inactive)
BT-549
  GI50: 6.95 µM (inactive)
HT-29
  GI50: 7.31 µM (inactive)
786-0
  GI50: 10.4 µM (inactive)
A498
  GI50: 24.6 µM (inactive)
KM12
  GI50: 4.44 µM (inactive)
M14
  GI50: 4.69 µM (inactive)
SF-539
  GI50: 11.3 µM (inactive)
MDA-MB-435
  GI50: 2.14 µM (inactive)
LOX IMVI
  GI50: 9.66 µM (inactive)
DU-145
  GI50: 29.9 µM (inactive)
SW-620
  GI50: 4.62 µM (inactive)
IGROV-1
  GI50: 9.98 µM (inactive)
SK-MEL-28
  GI50: 14.2 µM (inactive)
SF-268
  GI50: 16.3 µM (inactive)
RPMI-8226
  GI50: 7.14 µM (inactive)
EKVX
  GI50: 36.8 µM (inactive)
OVCAR-3
  GI50: 7.21 µM (inactive)
UO-31
  GI50: 19.6 µM (inactive)
MCF7
  GI50: 4.85 µM (inactive)
HCC 2998
  GI50: 7.01 µM (inactive)
SF-295
  GI50: 5.22 µM (inactive)
HCT-15
  GI50: 12.6 µM
T47D
  GI50: 16.8 µM (inactive)
SNB-19
  GI50: 16.2 µM (inactive)
SK-MEL-2
  GI50: 18.7 µM (inactive)
SR
  GI50: 4.57 µM (inactive)
HOP-62
  GI50: 10.1 µM (inactive)
HOP-92
  GI50: 15.5 µM (inactive)
OVCAR-4
  GI50: 22.3 µM (inactive)
HCT-116
  GI50: 4.53 µM (inactive)
RXF 393
  GI50: 6.95 µM (inactive)
A549
  GI50: 11.7 µM (inactive)
SK-MEL-5
  GI50: 3.63 µM (inactive)
MDA-MB-231
  GI50: 18.8 µM (inactive)
K562
  GI50: 2.98 µM (inactive)
MDA-N
  GI50: 1.98 µM (inactive)
ACHN
  GI50: 18.3 µM (inactive)
UACC-62
  GI50: 4.49 µM (inactive)
NCI/ADR-RES
  GI50: 5.92 µM (inactive)
CCRF-CEM
  GI50: 7.29 µM (inactive)
SK-OV-3
  GI50: 9.18 µM (inactive)
UACC-257
  GI50: 25 µM (inactive)
NCI-H460
  GI50: 6.18 µM (inactive)
OVCAR-5
  GI50: 14.2 µM (inactive)
NCI-H23
  GI50: 28.8 µM (inactive)
PC-3
  GI50: 14.4 µM (inactive)
NCI-H522
  GI50: 3.1 µM (inactive)
MOLT-4
  GI50: 6.08 µM (inactive)
SNB-75
  GI50: 3.48 µM (inactive)
TK-10
  GI50: 24.9 µM (inactive)
HL-60
  GI50: 2.69 µM (inactive)
SN12C
  GI50: 15.2 µM (inactive)
